Measured values: US11098077B2, “Locked nucleic acid cyclic dinucleotide compounds and uses thereof” (CHINOOK THERAPEUTICS, INC., priority 2016, dated 2021)

Tests used:
hSTING HAQ allele = molecular target: T1, hSTING HAQ allele (Homo sapiens, UniProt Q86WV6, G230A/H232R/R293Q); assay: Differential scanning fluorometry (DSF) binding to purified STING AA140-379, HAQ allele; conditions: ligand 1 mM, 1 mg/ml STING AA140-379
T1 construct: DNA encoding amino acids 140-379 (amino acid numbering corresponding to Swiss Prot Q86WV6); 6xHIS (N, cleaved yes); SUMO (N, cleaved yes); made in house; host or cells: Rosetta2 (DE3) E. coli
T1 sequence (Q86WV6 140-379 G230A/H232R/R293Q limits assumed): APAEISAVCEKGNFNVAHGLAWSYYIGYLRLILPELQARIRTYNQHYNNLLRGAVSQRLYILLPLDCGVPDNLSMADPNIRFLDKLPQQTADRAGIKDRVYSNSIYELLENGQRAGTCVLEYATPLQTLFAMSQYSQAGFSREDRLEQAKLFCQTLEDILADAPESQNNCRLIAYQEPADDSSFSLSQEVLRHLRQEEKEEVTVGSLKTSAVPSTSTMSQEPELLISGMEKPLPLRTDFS
Protocol: (§1) Cells were grown in lysogeny broth at 37° C. until a […] absorbance of 0.6 was reached. […] Cell pellets were re-suspended on ice in a buffer containing 50 mM Tris hydrochloride (Tris-HCl) pH 7.5, 500 mM sodium chloride (NaCl), 20 mM imidazole, 10% glycerol, 1 mM tris(2-carboxyethyl)phosphine hydrochloride (TCEP) and protease inhibitor tablet (Pierce) (Buffer A). Cells were lysed using an S-450D sonifier (Emmerson industrial) on ice. […] Protein was aliquoted, flash frozen in liquid nitrogen and stored at −80° C. until use.
(§2) The protein is heated in the presence of a dye that binds to and fluoresces in hydrophobic environments. The protein is thermally denatured by heating resulting in increased dye binding to the unfolded protein and fluorescence. The temperature midpoint (Tm) of a proteins denaturation is established by calculating the half maximal value of the denaturation curve. The temperature midpoint of the protein in the presence of a ligand is directly related to the affinity of the ligand for the protein and therefore its ability to stabilize the protein at higher temperatures.
(§3) Each of wild type hSTING, HAQ allele hSTING and REF allele hSTING were used with each of the reference compounds and compounds of the invention as listed in Table 4. Samples were placed in hard shell PCR plate (Bio-Rad). The fluorescence as a function of temperature was recorded in a CFX 96 real time PCR machine (Bio-Rad) reading on the HEX channel, excitation 450-490, emission 560-580 nm. The temperature gradient was from 15-80° C. ramping 0.5° C. per 15 seconds and recording every 0.5° C. After subtraction of the background signal from a sample lacking protein and ligand. The midpoint temperature (Tm) was calculated by fitting the curves of the fluorescence as a function of temperature to a Boltzmann sigmoidal function (Graph Pad Prism).

hSTING WT = molecular target: T2, hSTING WT (Homo sapiens, UniProt Q86WV6, H232R); assay: Differential scanning fluorometry (DSF) binding to purified STING AA140-379, wild type; conditions: for hSTING Tm Shift WT: DSF, ligand 1 mM, 1 mg/ml STING AA140-379
T2 construct: DNA encoding amino acids 140-379 (amino acid numbering corresponding to Swiss Prot Q86WV6); 6xHIS (N, cleaved yes); SUMO (N, cleaved yes); made in house; host or cells: Rosetta2 (DE3) E. coli
T2 sequence (Q86WV6 140-379 H232R limits assumed): as the sequence (Q86WV6 140-379 G230A/H232R/R293Q limits assumed) above, with A91G, Q154R counted along it
Protocol: as §1, §2, §3

[1] = molecular target: T3, hSTING HAQ allele in THP1-Dual cells (Homo sapiens, UniProt Q86WV6, G230A/H232R/R293Q/R71H); assay: THP1-Dual IRF-3 inducible secreted luciferase reporter assay (type I interferon activation), without digitonin; format: cell-based
T3 construct: a human monocyte cell line containing the hSTING HAQ allele; host or cells: THP1-Dual cells
T3 sequence (Q86WV6 whole entry R71H/G230A/H232R/R293Q): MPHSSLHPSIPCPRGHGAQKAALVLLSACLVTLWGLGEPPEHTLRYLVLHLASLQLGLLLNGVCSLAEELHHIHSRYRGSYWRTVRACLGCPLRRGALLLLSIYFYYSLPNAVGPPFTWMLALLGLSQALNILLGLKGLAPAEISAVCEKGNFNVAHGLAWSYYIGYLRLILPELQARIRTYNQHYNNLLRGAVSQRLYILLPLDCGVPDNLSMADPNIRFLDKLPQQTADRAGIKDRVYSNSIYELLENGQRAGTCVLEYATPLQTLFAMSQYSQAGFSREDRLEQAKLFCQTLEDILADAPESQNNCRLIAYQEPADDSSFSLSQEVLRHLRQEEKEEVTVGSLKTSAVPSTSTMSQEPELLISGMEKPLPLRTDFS
Protocol: After 30 minutes, cells were washed and fresh RPMI media containing 10% FBS was added, and cells were incubated at 37° C. with 5% CO2 Cell culture supernatants from each sample were collected after overnight incubation, and 10 μL of the cell culture supernatants was added to 50 μL QUANTI-Luc reagent (Invivogen). Type I interferon activation was determined by measuring secreted luciferase levels on a SpectraMax M3 spectrophotometer (Molecular Devices).

hSTING REF allele = molecular target: T4, hSTING REF allele (Homo sapiens, UniProt Q86WV6); assay: Differential scanning fluorometry (DSF) binding to purified STING AA140-379, REF allele; conditions: for hSTING Tm Shift REF: DSF, ligand 1 mM, 1 mg/ml STING AA140-379
T4 construct: DNA encoding amino acids 140-379 (amino acid numbering corresponding to Swiss Prot Q86WV6); 6xHIS (N, cleaved yes); SUMO (N, cleaved yes); made in house; host or cells: Rosetta2 (DE3) E. coli
T4 sequence (Q86WV6 140-379): as the sequence (Q86WV6 140-379 G230A/H232R/R293Q limits assumed) above, with A91G, R93H, Q154R counted along it
Protocol: as §1, §2, §3

[2] = for all three alleles (WT, HAQ, REF)

hSTING Tm Shift HAQ (hSTING HAQ allele)	hSTING Tm Shift WT (hSTING WT)	EC50 [1]	hSTING Tm Shift REF (hSTING REF allele)	Compound	Tm shift compared with natural ligand 2′3′-(G)(A) (hSTING WT; [2])	Tm shift compared with reference compound 2′3′-RR-(A)(A) (hSTING WT; [2])	Tm shift compared with 2′3′-RR-(A)(A) and 2′3′-(G)(A) (hSTING REF allele; for the REF allele)
13.2 °C	8.2 °C	81 µM	7.1 °C	Nc1ncnc2c1ncn2[C@@H]1O[C@@H]2CO[P@](=O)(S)O[C@H]3[C@H]4OC[C@]3(CO[P@@](=O)(S)O[C@@H]1[C@@H]2F)O[C@H]4n1cnc2c(N)ncnc21 [Compound 27b, dithio-(Rp,Sp)-cyclic-[3′F-A(2′,5′)p-2′O,4′C-LNA-A(3′,5′)p]]			
6.8 °C	1.8 °C	> 150 µM	0.5 °C	Nc1ncnc2c1ncn2[C@@H]1O[C@@H]2CO[P@](=O)(S)O[C@H]3[C@H]4OC[C@]3(CO[P@@](=O)(S)O[C@@H]1[C@H]2F)O[C@H]4n1cnc2c(N)ncnc21 [Compound 37b, dithio-(RP,SP)-cyclic-[3′βF-A(2′,5′)p-2′O,4′C-LNA-A(3′,5′)p]]			
13.9 °C	8.7 °C	110 µM	7.4 °C	Nc1ncnc2c1ncn2[C@@H]1O[C@@H]2CO[P@](=O)(S)O[C@H]3[C@H]4OC[C@]3(CO[P@@](=O)(S)O[C@@H]1[C@@H]2O)O[C@H]4n1cnc2c(N)ncnc21 [Compound 10b, dithio-(Rp,Sp)-cyclic-[A(2′,5′)p-2′O,4′C-LNA-A(3′,5′)p]]			
2.2 °C	0.6 °C		0.6 °C	O=C(Nc1ncnc2c1ncn2[C@@H]1O[C@@]23CO[C@@H]1[C@@H]2O[P@](=O)(S)OC[C@@H]1C[C@@H](O[P@](=O)(S)OC3)[C@H](n2cnc3c(NC(=O)c4ccccc4)ncnc32)O1)c1ccccc1 [Compound 22a, dithio-(Rp,Rp)-cyclic-[3′H-BzA(2′,5′)p-2′O,4′C-LNA-BzA(3′,5′)p]]			
10.0 °C	5.0 °C	77.3 µM	4.2 °C	Nc1ncnc2c1ncn2[C@@H]1O[C@@]23CO[C@@H]1[C@@H]2O[P@@](=O)(S)OC[C@@H]1C[C@@H](O[P@](=O)(S)OC3)[C@H](n2cnc3c(N)ncnc32)O1 [Compound 21b, dithio-(Rp,Sp)-cyclic-[3′H-A(2′,5′)p-2′O,4′C-LNA-A(3′,5′)p]]			
5.7 °C	1.2 °C	> 150 µM	0.8 °C	Nc1ncnc2c1ncn2[C@@H]1O[C@@H]2CO[P@@](=O)(S)O[C@H]3[C@H]4OC[C@]3(CO[P@](=O)(S)O[C@@H]1[C@H]2F)O[C@H]4n1cnc2c(N)ncnc21 [Compound 37c, dithio-(Sp,Rp)-cyclic-[3′βF-A(2′,5′)p-2′O,4′C-LNA-A(3′,5′)p]]			
29.6 °C	18.36 °C	30.2 µM	11.9 °C	Nc1nc2c(ncn2[C@@H]2O[C@@]34CO[C@@H]2[C@@H]3O[P@](=O)(S)OC[C@H]2O[C@@H](n3cnc5c(N)ncnc53)[C@H](O)[C@@H]2O[P@](=O)(S)OC4)c(=O)[nH]1 [Compound 33a, 3′3′-RR-(A)(2′O,4′C-LNA-G)]	greater Tm shift than the natural ligand 2′3′-(G)(A)	comparable to or greater than that of the reference compound 2′3′-RR-(A)(A)	greater Tm shift than both 2′3′-RR-(A)(A) and 2′3′-(G)(A)
16.2 °C	9.5 °C	26.9 µM	6.2 °C	Nc1ncnc2c1ncn2[C@@H]1O[C@@]23CO[C@@H]1[C@@H]2O[P@](=O)(S)OC[C@@H]1C[C@@H](O[P@](=O)(S)OC3)[C@H](n2cnc3c(N)ncnc32)O1 [Compound 21a, dithio-(Rp,Rp)-cyclic-[3′H-A(2′,5′)p-2′O,4′C-LNA-A(3′,5′)p]]			
16.1 °C	10.4 °C	24.3 µM	7.5 °C	Nc1ncnc2c1ncn2[C@@H]1O[C@@H]2CO[P@@](=O)(S)O[C@H]3[C@H]4OC[C@]3(CO[P@@](=O)(S)O[C@@H]1[C@@H]2O)O[C@H]4n1cnc2c(N)ncnc21 [Compound 10a, dithio-(Rp,Rp)-cyclic-[A(2′,5′)p-2′O,4′C-LNA-A(3′,5′)p]]			
2.4 °C	−0.3 °C	> 150 µM	−0.3 °C	Nc1ncnc2c1ncn2[C@@H]1O[C@@H]2CO[P@](=O)(S)O[C@H]3[C@H]4OC[C@]3(CO[P@](=O)(S)O[C@@H]1[C@H]2F)O[C@H]4n1cnc2c(N)ncnc21 [Compound 37d, dithio-(SP,SP)-cyclic-[3′βF-A(2′,5′)p-2′O,4′C-LNA-A(3′,5′)p]]			
14.7 °C	9.4 °C	60 µM	7.4 °C	Nc1nc2c(ncn2[C@@H]2O[C@@H]3CO[P@](=O)(S)O[C@H]4[C@H]5OC[C@]4(CO[P@@](=O)(S)O[C@H]3[C@H]2O)O[C@H]5n2cnc3c(N)ncnc32)c(=O)[nH]1 [Compound 45b, 2-amino-9-((2R,3R,3aS,5S,7aR,9R,10R,10aS,12R,14aR)-2-(6-amino-9H-purin-9-yl)-10-hydroxy-5,12-dimercapto-5,12-dioxidohexahydro-2H,7H,14H-3,14a-(epoxymethano)difuro[3,2-d:3′,2′-j][1,3,7,9]tetraoxa[2,8]diphosphacyclododecin-9-yl)-1,9-dihydro-6H-purin-6-one]			
5.9 °C	4.6 °C		4.6 °C	O=C(Nc1ncnc2c1ncn2[C@@H]1O[C@@]23CO[C@@H]1[C@@H]2O[P@@](=O)(S)OC[C@@H]1C[C@@H](O[P@](=O)(S)OC3)[C@H](n2cnc3c(NC(=O)c4ccccc4)ncnc32)O1)c1ccccc1 [Compound 22b, dithio-(Rp,Sp)-cyclic-[3′H-BzA(2′,5′)p-2′O,4′C-LNA-BzA(3′,5′)p]]			
3.7 °C	2.5 °C		2.4 °C	O=C(Nc1ncnc2c1ncn2[C@@H]1O[C@@H]2CO[P@@](=O)(S)O[C@H]3[C@H]4OC[C@]3(CO[P@@](=O)(S)O[C@@H]1[C@@H]2O)O[C@H]4n1cnc2c(NC(=O)c3ccccc3)ncnc21)c1ccccc1 [Compound 11d, dithio-(Rp,Rp)-cyclic-[3′-BzA(2′,5′)p-2′O,4′C-LNA-BzA(3′,5′)p]]			
7.5 °C	6.6 °C		6.5 °C	O=C(Nc1ncnc2c1ncn2[C@@H]1O[C@@H]2CO[P@@](=O)(S)O[C@H]3[C@H]4OC[C@]3(CO[P@](=O)(S)O[C@@H]1[C@@H]2O)O[C@H]4n1cnc2c(NC(=O)c3ccccc3)ncnc21)c1ccccc1 [Compound 11f, dithio-(Sp,Rp)-cyclic-[3′-BzA(2′,5′)p-2′O,4′C-LNA-BzA(3′,5′)p]]			
1.5 °C	1.1 °C		1.2 °C	O=C(Nc1ncnc2c1ncn2[C@@H]1O[C@@H]2CO[P@](=O)(S)O[C@H]3[C@H]4OC[C@]3(CO[P@@](=O)(S)O[C@@H]1[C@@H]2O)O[C@H]4n1cnc2c(NC(=O)c3ccccc3)ncnc21)c1ccccc1 [Compound 11e, dithio-(Rp,Sp)-cyclic-[3′-BzA(2′,5′)p-2′O,4′C-LNA-BzA(3′,5′)p]]			

Compound	hSTING Tm Shift HAQ (hSTING HAQ allele)	hSTING Tm Shift WT (hSTING WT)	EC50 [1]	hSTING Tm Shift REF (hSTING REF allele)	Tm shift compared with natural ligand 2′3′-(G)(A) (hSTING WT; [2])	Tm shift compared with reference compound 2′3′-RR-(A)(A) (hSTING WT; [2])	Tm shift compared with 2′3′-RR-(A)(A) and 2′3′-(G)(A) (hSTING REF allele; for the REF allele)
CC(C)(C)[Si](C)(C)O[C@H]1[C@H]2O[P@](=O)(S)OC[C@@]34CO[C@@H]([C@H](n5cnc6c(N)ncnc65)O3)[C@@H]4O[P@](=O)(S)OC[C@H]1O[C@H]2n1cnc2c(N)ncnc21 [Compound 11a, dithio-(Rp,Rp)-cyclic-[3′-OTBS-A(2′,5′)p-2′O,4′C-LNA-A(3′,5′)p]]	11.6 °C	7.0 °C		5.4 °C			
CC(C)(C)[Si](C)(C)O[C@H]1[C@H]2O[P@](=O)(S)OC[C@@]34CO[C@@H]([C@H](n5cnc6c(N)ncnc65)O3)[C@@H]4O[P@@](=O)(S)OC[C@H]1O[C@H]2n1cnc2c(N)ncnc21 [Compound 11b, dithio-(Rp,Sp)-cyclic-[3′-OTBS-A(2′,5′)p-2′O,4′C-LNA-A(3′,5′)p]]	3.3 °C	−1.8 °C		−1.5 °C			
